We go through 1 compound from publication PMC5288202, “Simultaneous inhibition of Vps34 kinase would enhance PI3Kδ inhibitor cytotoxicity in the B-cell malignancies” (Oncotarget, 2016).

For one test, the target named is T1, PI3Kα (Homo sapiens, UniProt P42336).
T1 construct: purchased Invitrogen
The test can be described thus: ADP-Glo biochemical assay. Conditions: purified protein, 10 μM ATP, read-out: IC50 against PI3Kα (PIK3CA). (ADP-Glo turns the ADP formed in a reaction into a luminescent signal.)

The next test concerns the target T2, PIK3C2A (Homo sapiens, UniProt O00443).
T2 construct: purchased Invitrogen
Put plainly: ADP-Glo biochemical assay. Conditions: 50 μM ATP, read-out: IC50 against PIK3C2A.

For a further test, the target named is T3, PI4KA (Homo sapiens, UniProt P42356).
T3 construct: purchased Invitrogen
The test can be described thus: ADP-Glo biochemical assay. To be noted: 50 μM ATP, read-out: IC50 against PI4KA.

In another test the target is T4, PI3Kβ (Mus musculus, UniProt Q8BTI9).
T4 construct: endogenous in cells; host or cells: NIH-3T3
Put plainly: PI3K isoforms cellular selectivity assay (AKT phosphorylation, NIH-3T3, LPA). The class given is cell-based. Conditions: NIH-3T3 cells, LPA stimulation. As for the experimental part: (§1) Cells were lysed and AKT phosphorylation was determined by Western Blotting. Intensity of the bands was determined using ImageJ 1.42q (NIH, USA) and normalized to total AKT (loading control).

The target in a further test is T5, PI3Kγ (Mus musculus, UniProt Q9JHG7).
T5 construct: endogenous in cells; host or cells: RAW264.7 (ATCC)
The test can be described thus: PI3K isoforms cellular selectivity assay (AKT phosphorylation, RAW264.7, C5a). The class given is cell-based. To be noted: RAW264.7 cells, C5a stimulation. The method, then:
as §1

Test [1] deals with T6, PI3Kδ (Homo sapiens, UniProt O00329). The test can be described thus: PI3K isoforms cellular selectivity assay (AKT phosphorylation, Raji, anti-IgM). The class given is cell-based. To be noted: Raji cells, anti-IgM stimulation.
The next test concerns protein kinases. The test can be described thus: DiscoveRx's KinomeScan selectivity profile. The class given is binding. To be noted: 1 μM.
Another test concerns the target mTORC1 kinase (Homo sapiens, UniProt P42345). The test can be described thus: in vitro IP kinase assay. The class given is biochemical. Conditions: activity-based in vitro IP kinase assay; read-out: EC50 mTORC1 kinase inhibition.
The subject of test [2] is LC3BII accumulation in HeLa cells. The test can be described thus: LC3BII accumulation in the presence of EBSS and HCQ (immunoblot). The class given is cell-based. Conditions: Homo sapiens, EBSS and HCQ (25 μM), read-out: EC50 prevention of LC3BII accumulation. As for the experimental part:
HeLa cells were treated with different concentrations of inhibitors for 16 hours. For all immunofluorescence experiments, cells were fixed in -20 °C methanol for 5 minutes or 3.7% (v/v) formaldehyde in phosphate-buffered saline (PBS) for 20 minutes. For LC3B staining, cells were fixed in -20 °C methanol. For EEA1 and LAMP1 staining, cells were fixed in PBS+ formaldehyde. Cells were then permeabilized with TBSTx (0.1% Triton X-100), blocked in AbDil (TBSTx + 2% BSA + 0.1% NaN3), and probed with primary and secondary antibodies diluted in AbDil. Cells were rinsed thoroughly with TBSTx and mounted by anti-fade prolong Gold with DAPI. Images were taken using a Leica DMI4000B fluorescent microscope. All experiments were repeated at least three times). […] Cells were lysed in lysis buffer. P62, LC3B, and GAPDH antibodies were used for immunoblotting.
On the technique in general: Immunoblotting shows a protein as a band on a membrane.

For the next test, the target named is T7, VPS34 (Homo sapiens, UniProt Q8NEB9).
T7 construct: purchased Invitrogen
Put plainly: Kinase kinetic assay with varied ATP. To be noted: varied ATP concentrations. The class given is biochemical. As for the experimental part: Kinetic analyses of PI3Kδ and Vps34 were performed using a luminometric kinase assay varying the concentration of ATP using the ADP-Glo reagents (Promega). […] After 60 min incubation at RT, varied concentrations of ATP and 0.1 mM substrate (PIP2:PS for PI3Kδ, PI:PS for Vps34) were added and incubated for 60 min at 37° C. The overall rate of reaction was determined as the slope of the decreasing phase of the reaction. Each data point was collected in duplicate and kinetic parameters were obtained using Prism 5.0 (GraphPad Software, San Diego, CA).

The next test relates to CMK. The test can be described thus: Anti-proliferative effect. To be noted: Homo sapiens, read-out: GI50 CMK. The class given is cell-based.
In a further test the test system is NOMO-1. The test can be described thus: Anti-proliferative effect. The class given is cell-based. To be noted: Homo sapiens, NOMO-1, read-out: GI50 NOMO-1.
The subject of the next test is SKM-1. The test can be described thus: Anti-proliferative effect. To be noted: Homo sapiens, SKM-1, read-out: GI50 SKM-1. The class given is cell-based.
The test system of a further test is MOLM-14. Put plainly: Anti-proliferative effect. The class given is cell-based. To be noted: AML (FLT3-ITD).
The subject of a further test is MEC-1. Put plainly: Anti-proliferative effect. The class given is cell-based. To be noted: Homo sapiens, MEC1; CLL.
Test [3] relates to OCI-AML-3. The test can be described thus: Colony formation (colonogenic assay). The class given is cell-based. Conditions: Homo sapiens.
In test [4] the test system is FLT3-ITD positive primary AML cells. Put plainly: Growth of AML primagraft cells ex vivo. The class given is cell-based. Conditions: 72 hours. As for the experimental part: Mononuclear cells were isolated from AML patients. Mononuclear cells were isolated by density gradient centrifugation through Ficoll-Plaque Plus (Amersham Pharmacia Biotech AB, Uppsala, Sweden) at 2000 rpm for 30 minutes, followed by two washes in 1X PBS. Freeze-thawed cells were then cultured in liquid culture (DMEM, supplemented with 20% FBS). All blood and bone marrow samples from AML patients were obtained through written consent under approval of the Dana Farber Cancer Institute Institutional Review Board. The ethics committees approved the consent procedure.

Test [5] relates to MV4-11. Put plainly: Induction of apoptosis (PARP cleavage). The class given is cell-based.
The subject of test [6] is OCI-AML-3. Put plainly: Autophagy markers LC3BII and p62 (immunoblotting). The class given is cell-based.
Test [7] deals with MV4-11. The test can be described thus: Cell cycle analysis. The class given is cell-based. Conditions: MV4-11, 48 h treatment.
Test [8] deals with OCI-AML-3. Put plainly: Cell cycle analysis. The class given is cell-based. To be noted: OCI-AML-3, 48 h treatment.
The target of test [9] is T6, PI3Kδ. The test can be described thus: biochemical.
Procedure: The activities of PI3Kα, PI3Kβ, PI3Kδ, PI3Kγ, PI3KC2α, PI3KC2β, Vps34, PI4Kα and PI4Kβ were determined by using ADP-Glo assay, a fluorescence-based immunoassay that measures kinase activity in terms of the amount of ADP produced. A kinase titration was performed to determine the concentration. The amount of recombinant kinases was optimized to keep the reaction velocity within the linear range, to obtain an adequate difference between the resulting signals of sample in/out the presence of enzyme. The optimized enzyme concentrations for evaluating the inhibitory activities of compounds were chosen as follows: 0.16 μg/ml, 6.0 μg/ml, 1.0 μg/ml, 5.0 μg/ml, 5.0 μg/ml, 10.0 μg/ml, 1.2 μg/ml, 1.2 μg/ml and 1.0 μg/ml for PI3Kα, PI3Kβ, PI3Kδ, PI3Kγ, PI3KC2α, PI3KC2β, Vps34, PI4Kα and PI4Kβ, respectively. The ATP concentration was optimized, 10 μM ATP for PI3Kα and PI3Kβ, and 50 μM ATP for detection of the other seven kinases. The PI3Kα, PI3Kβ, PI3Kδ, PI3Kγ, PI3KC2α, PI3KC2β kinase reactions were carried out in 10 μl volume in a 384-well plate in the kinase reaction buffer containing 50 mM Hepes pH 7.5, 3 mM MgCl2, 1 mM EGTA, 1 mM NaCl, 0.03% CHAPS and 2 mM DTT. […] 10 μl kinase detection reagent was dded and incubated for 30 min at room temperature, before the luminescence signal was read with an envision PerkinElmer plate reader.

T6 sequence (O00329 whole entry, canonical isoform): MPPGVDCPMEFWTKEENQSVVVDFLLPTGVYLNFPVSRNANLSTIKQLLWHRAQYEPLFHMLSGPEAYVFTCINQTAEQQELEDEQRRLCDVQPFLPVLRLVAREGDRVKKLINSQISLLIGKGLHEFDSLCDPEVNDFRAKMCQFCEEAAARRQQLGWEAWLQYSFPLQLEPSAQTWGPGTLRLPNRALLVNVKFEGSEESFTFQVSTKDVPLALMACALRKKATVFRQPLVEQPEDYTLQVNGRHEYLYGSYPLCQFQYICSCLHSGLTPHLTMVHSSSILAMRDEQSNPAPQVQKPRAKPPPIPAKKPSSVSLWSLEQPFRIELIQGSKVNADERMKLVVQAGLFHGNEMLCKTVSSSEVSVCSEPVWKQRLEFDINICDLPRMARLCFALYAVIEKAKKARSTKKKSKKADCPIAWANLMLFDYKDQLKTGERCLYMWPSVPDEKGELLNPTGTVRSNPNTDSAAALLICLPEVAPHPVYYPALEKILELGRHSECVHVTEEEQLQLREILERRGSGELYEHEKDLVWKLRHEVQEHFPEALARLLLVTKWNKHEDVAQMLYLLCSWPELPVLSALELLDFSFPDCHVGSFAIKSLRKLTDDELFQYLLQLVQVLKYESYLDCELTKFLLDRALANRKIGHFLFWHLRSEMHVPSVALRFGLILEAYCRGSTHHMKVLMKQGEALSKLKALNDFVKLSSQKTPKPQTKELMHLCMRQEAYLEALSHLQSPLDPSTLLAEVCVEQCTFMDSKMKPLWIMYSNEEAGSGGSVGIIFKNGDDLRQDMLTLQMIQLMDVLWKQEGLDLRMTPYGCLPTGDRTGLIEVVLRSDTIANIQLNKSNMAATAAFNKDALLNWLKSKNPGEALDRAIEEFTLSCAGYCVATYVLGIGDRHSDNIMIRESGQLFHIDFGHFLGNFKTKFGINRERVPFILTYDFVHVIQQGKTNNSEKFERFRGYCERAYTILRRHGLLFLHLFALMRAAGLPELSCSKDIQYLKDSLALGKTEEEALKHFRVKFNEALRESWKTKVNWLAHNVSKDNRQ
T6 sequence (P27986 whole entry partner, canonical isoform): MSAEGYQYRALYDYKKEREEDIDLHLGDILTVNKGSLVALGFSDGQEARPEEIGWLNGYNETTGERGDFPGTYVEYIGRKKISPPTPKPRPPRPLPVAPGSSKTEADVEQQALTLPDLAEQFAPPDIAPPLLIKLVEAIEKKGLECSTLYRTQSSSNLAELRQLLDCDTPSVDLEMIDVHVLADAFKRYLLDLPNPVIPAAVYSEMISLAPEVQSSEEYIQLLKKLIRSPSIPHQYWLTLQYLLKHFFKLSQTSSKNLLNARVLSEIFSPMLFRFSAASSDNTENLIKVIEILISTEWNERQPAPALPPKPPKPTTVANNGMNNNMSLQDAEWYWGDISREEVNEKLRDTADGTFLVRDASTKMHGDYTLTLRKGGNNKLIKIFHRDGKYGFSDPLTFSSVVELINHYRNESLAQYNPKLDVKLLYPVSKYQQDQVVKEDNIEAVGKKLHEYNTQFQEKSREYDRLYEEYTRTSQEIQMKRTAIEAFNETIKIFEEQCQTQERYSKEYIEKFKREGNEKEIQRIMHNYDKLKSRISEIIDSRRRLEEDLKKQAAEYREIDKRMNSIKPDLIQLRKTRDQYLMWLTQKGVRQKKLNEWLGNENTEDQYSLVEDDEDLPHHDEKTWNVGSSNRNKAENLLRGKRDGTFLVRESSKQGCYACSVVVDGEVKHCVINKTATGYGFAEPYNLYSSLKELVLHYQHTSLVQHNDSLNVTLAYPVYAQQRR
T2 sequence (O00443 whole entry): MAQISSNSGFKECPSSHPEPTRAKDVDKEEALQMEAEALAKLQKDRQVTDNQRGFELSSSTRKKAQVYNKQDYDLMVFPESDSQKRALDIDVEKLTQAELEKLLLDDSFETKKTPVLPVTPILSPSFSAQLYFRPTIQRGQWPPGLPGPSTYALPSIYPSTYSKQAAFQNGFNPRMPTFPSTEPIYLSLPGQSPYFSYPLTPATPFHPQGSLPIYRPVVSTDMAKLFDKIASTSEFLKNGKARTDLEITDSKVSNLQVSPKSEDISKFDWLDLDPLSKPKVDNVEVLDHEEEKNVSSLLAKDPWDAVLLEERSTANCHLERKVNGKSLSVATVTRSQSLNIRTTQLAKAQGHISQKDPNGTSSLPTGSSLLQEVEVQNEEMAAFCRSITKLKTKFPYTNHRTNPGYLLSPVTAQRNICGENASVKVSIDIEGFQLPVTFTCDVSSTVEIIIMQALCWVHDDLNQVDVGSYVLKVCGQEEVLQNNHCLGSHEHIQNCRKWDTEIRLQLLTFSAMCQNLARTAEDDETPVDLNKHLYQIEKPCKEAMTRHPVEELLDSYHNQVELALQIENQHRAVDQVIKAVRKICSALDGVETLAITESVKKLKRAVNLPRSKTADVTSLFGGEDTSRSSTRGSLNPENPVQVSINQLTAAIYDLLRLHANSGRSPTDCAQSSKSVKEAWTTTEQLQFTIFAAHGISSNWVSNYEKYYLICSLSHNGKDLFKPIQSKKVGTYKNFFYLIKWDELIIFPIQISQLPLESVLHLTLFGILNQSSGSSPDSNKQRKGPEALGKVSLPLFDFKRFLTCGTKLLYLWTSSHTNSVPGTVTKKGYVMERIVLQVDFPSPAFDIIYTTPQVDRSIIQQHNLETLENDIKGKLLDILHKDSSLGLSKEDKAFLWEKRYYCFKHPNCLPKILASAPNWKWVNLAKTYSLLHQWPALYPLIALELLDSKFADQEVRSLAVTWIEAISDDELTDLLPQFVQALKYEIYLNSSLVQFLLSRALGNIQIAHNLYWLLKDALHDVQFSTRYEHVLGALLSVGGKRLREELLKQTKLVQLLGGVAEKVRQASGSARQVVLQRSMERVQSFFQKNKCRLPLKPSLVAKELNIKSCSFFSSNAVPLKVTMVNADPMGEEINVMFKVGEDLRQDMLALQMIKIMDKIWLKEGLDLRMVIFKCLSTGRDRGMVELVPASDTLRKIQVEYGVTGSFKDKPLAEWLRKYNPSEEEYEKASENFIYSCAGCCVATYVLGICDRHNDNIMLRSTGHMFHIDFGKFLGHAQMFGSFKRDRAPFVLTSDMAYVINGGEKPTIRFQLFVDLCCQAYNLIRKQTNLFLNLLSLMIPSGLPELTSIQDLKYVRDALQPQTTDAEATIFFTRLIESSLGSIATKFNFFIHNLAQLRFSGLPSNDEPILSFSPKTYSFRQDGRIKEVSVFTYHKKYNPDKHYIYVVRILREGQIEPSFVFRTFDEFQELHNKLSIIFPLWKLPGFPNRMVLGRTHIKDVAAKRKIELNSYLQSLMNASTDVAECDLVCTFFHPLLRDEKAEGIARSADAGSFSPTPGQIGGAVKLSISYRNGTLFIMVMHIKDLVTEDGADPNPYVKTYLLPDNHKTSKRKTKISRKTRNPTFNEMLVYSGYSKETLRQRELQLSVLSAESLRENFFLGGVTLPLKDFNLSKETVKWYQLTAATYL
T7 sequence (Q8NEB9 whole entry): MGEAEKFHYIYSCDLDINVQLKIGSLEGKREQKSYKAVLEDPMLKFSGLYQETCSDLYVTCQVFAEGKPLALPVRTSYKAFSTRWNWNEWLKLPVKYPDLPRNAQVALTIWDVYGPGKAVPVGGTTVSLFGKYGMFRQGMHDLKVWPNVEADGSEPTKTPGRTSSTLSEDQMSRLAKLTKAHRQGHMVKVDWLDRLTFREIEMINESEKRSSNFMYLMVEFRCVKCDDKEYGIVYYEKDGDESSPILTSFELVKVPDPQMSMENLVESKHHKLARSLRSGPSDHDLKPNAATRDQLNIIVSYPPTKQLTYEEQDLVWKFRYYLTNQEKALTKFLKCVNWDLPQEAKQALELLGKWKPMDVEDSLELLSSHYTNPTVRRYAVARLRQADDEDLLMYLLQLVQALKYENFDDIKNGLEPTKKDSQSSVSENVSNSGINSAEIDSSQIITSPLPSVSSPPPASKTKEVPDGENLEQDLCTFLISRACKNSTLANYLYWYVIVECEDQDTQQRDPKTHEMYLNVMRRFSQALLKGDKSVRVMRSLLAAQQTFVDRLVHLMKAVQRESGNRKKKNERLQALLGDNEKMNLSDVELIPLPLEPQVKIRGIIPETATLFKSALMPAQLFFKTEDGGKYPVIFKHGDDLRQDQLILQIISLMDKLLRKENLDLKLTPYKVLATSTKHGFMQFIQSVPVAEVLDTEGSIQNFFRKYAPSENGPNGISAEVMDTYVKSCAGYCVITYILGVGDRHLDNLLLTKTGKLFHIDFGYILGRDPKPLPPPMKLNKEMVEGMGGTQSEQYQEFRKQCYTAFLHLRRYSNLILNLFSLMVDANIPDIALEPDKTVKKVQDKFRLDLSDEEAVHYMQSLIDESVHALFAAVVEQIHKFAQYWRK

Broadly, the IC50 is the concentration that inhibits the measured activity by half. For orientation: EC50 means the concentration needed to bring the measured effect to its halfway point. As usually defined, the GI50 is the concentration giving 50% growth inhibition. The inhibition is the percentage by which the read-out fell short of the control. Read a high inhibition as strong suppression. As to `Cc1nc(NC(=O)CN)sc1-c1cnc(Cl)c(NS(=O)(=O)c2ccc(C(C)(C)C)cc2)c1` [PI3KD/V-IN-01, 2-amino-N-(5-(5-(4-tert-butylphenylsulfonamido)-6-chloropyridin-3-yl)-4-methylthiazol-2-yl)acetamide], the IC50 is 64 nM on PI3Kα, greater than 10000 nM on PIK3C2A, greater than 10000 nM on PI4KA and 6 nM against PI3Kδ [9]. Moreover, the EC50 is greater than 3000 nM on PI3Kβ; 186 nM on PI3Kγ; 11 nM at PI3Kδ [1]; 1700 nM on mTORC1 kinase; 413 nM in test [2]; 1000 nM in the test on OCI-AML-3 [3]. In addition, the “S score (5)” value with protein kinases amounted to 0.00. For the same compound, the “Mode of inhibition against Vps34” value at VPS34 is “ATP competitive inhibitor”. Besides, the GI50 in the test on CMK is 2000 nM; with NOMO-1 it was 2300 nM; with SKM-1, 1000 nM; with MOLM-14, 510 nM; in the test with MOLM-14 (Homo sapiens, MOLM-14), less than 1000 nM; with MEC-1, greater than 10000 nM. In addition, in test [4], the inhibition at 1 µM is greater than 85%. For the same compound, the induction of apoptosis entry in the test with MV4-11 [5] is “apparent PARP cleavage observed”. Besides, in the test on OCI-AML-3 [6], the “levels of the autophagy markers, LC3BII and p62” value is listed as “concentration-dependent increase”. Besides, the cell cycle progression entry in the test with MV4-11 [7] and with OCI-AML-3 [8] was “arrested in the G0/G1 phase” each time.
